Assay results published in patent US8962674B2 (Tokyo Institute of Technology, priority 2006, dated 2015).

SMILES | melting point [°C]
COc1ccc(/C=C/C(=O)CC(=O)/C=C/c2ccc([N+](=O)[O-])c(OC)c2)cc1O [CU049, (1E,6E)-1-(3-hydroxy-4-methoxyphenyl)-7-(3-methoxy-4-nitrophenyl)hepta-1,6-diene-3,5-dione] | 196 to 199
Nc1ccc(/C=C/C(=O)CC(=O)/C=C/c2ccc(O)cc2)cc1 [CU408, (1E,6E)-1-(4-aminophenyl)-7-(4-hydroxyphenyl)hepta-1,6-diene-3,5-dione] | 212 to 217
COc1cc(/C=C/C(=O)CC(=O)/C=C/c2ccc([N+](=O)[O-])c(OC)c2)ccc1O [CU051, (1E,6E)-1-(4-hydroxy-3-methoxyphenyl)-7-(3-methoxy-4-nitrophenyl)hepta-1,6-diene-3,5-dione] | 157 to 163
O=C(/C=C/c1cc(O)ccc1-c1cccc2ccccc12)CC(=O)CCc1ccc(O)cc1 [CU542, (E)-1-[5-hydroxy-2-(naphthalen-1-yl)phenyl]-7-(4-hydroxyphenyl)hept-1-ene-3,5-dione] | 138 to 142
COc1cc(/C=C/C(=O)CC(=O)/C=C/c2cccc(OC)c2O)ccc1O [CU250, (1E,6E)-1-(2-hydroxy-3-methoxyphenyl)-7-(4-hydroxy-3-methoxyphenyl)hepta-1,6-diene-3,5-dione] | 156 to 158
COc1cc(/C=C/C(=O)CC(=O)/C=C/c2cc(Cl)cc(Cl)c2)ccc1O [CU140, (1E,6E)-1-(3,5-dichlorophenyl)-7-(4-hydroxy-3-methoxyphenyl)hepta-1,6-diene-3,5-dione] | 170 to 173
COc1ccc(/C=C/C(=O)CC(=O)/C=C/c2cccs2)cc1O [CU212, (1E,6E)-1-(3-hydroxy-4-methoxyphenyl)-7-(thiophen-2-yl)hepta-1,6-diene-3,5-dione] | 128 to 133
O=C(/C=C/c1ccc(O)cc1)CC(=O)/C=C/c1ccc2ccn(Cc3ccccc3)c2c1 [CU400, (1E,6E)-1-(1-benzyl-1H-indol-6-yl)-7-(4-hydroxyphenyl)hepta-1,6-diene-3,5-dione] | 164 to 170
CN(C)c1ccc(/C=C/C(=O)CC(=O)/C=C/c2ccc(O)cc2)c2ccccc12 [CU119, (1E,6E)-1-(4-dimethylaminonaphthalen-1-yl)-7-(4-hydroxyphenyl)hepta-1,6-diene-3,5-dione] | 82 to 86
O=C(/C=C/c1ccc(O)cc1)CC(=O)/C=C/c1cccc2cccnc12 [CU323, (1E,6E)-1-(4-hydroxyphenyl)-7-(quinolin-8-yl)hepta-1,6-diene-3,5-dione] | 112 to 117
COc1cc(/C=C/C(=O)CC(=O)/C=C/c2ccc3c(c2)OCO3)ccc1O [CU009, (1E,6E)-1-(benzo[1,3]dioxol-5-yl)-7-(4-hydroxy-3-methoxyphenyl)hepta-1,6-diene-3,5-dione] | 149 to 152
COc1ccc(/C=C/C(=O)CC(=O)/C=C/c2ccc(O)cc2)c(OC)c1 [CU072, (1E,6E)-1-(2,4-dimethoxyphenyl)-7-(4-hydroxyphenyl)hepta-1,6-diene-3,5-dione] | 161 to 167
O=C(/C=C/c1ccc(O)cc1)CC(=O)/C=C/c1ccccn1 [CU233, (1E,6E)-1-(4-hydroxyphenyl)-7-(pyridin-2-yl)hepta-1,6-diene-3,5-dione] | 180 to 182
O=C(/C=C/c1cccc2ncccc12)CC(=O)/C=C/c1cccc2ncccc12 [CU384, (1E,6E)-1,7-bis(quinolin-5-yl)hepta-1,6-diene-3,5-dione] | 170 to 174
O=C(/C=C/c1ccc(O)cc1)CC(=O)/C=C/c1ccccc1N1CCCC1 [CU496, (1E,6E)-1-(4-hydroxyphenyl)-7-[2-(pyrrolidin-1-yl)phenyl]hepta-1,6-diene-3,5-dione] | 73 to 80
O=C(/C=C/c1ccc(O)cc1)CC(=O)/C=C/c1ccccc1N1CCOCC1 [CU498, (1E,6E)-1-(4-hydroxyphenyl)-7-(2-morpholinophenyl)hepta-1,6-diene-3,5-dione] | 188 to 192
O=C(/C=C/c1ccc(O)cc1)CC(=O)/C=C/c1ccc(O)cc1Cl [CU127, (1E,6E)-1-(2-chloro-4-hydroxyphenyl)-7-(4-hydroxyphenyl)hepta-1,6-diene-3,5-dione] | 131 to 138
CCN(CC)c1ccc(/C=C/C(=O)CC(=O)/C=C/c2ccc(OC)c(O)c2)c(OCC=C(C)C)c1 [CU442, (1E,6E)-1-(4-diethylamino-2-prenyloxyphenyl)-7-(3-hydroxy-4-methoxyphenyl)hepta-1,6-diene-3,5-dione] | 139 to 143
COc1ccc(/C=C/C(=O)CC(=O)/C=C/c2ccc(O)cc2Cl)cc1O [CU130, (1E,6E)-1-(2-chloro-4-hydroxyphenyl)-7-(3-hydroxy-4-methoxyphenyl)hepta-1,6-diene-3,5-dione] | 120 to 130
O=C(/C=C/c1ccc(O)cc1)CC(=O)/C=C/c1cc(OCc2ccccc2)ccc1-c1ccccc1 [CU527, (1E,6E)-1-(4-benzyloxybiphenyl-2-yl)-7-(4-hydroxyphenyl)hepta-1,6-diene-3,5-dione] | 172 to 178

SMILES | melting point [°C]
COc1cc(N(C)C)ccc1/C=C/C(=O)CC(=O)/C=C/c1ccc(N(C)C)cc1OC [CU410, (1E,6E)-1,7-bis(4-dimethylamino-2-methoxyphenyl)hepta-1,6-diene-3,5-dione] | 76 to 86
COc1cc(/C=C/C(=O)CC(=O)/C=C/c2c[nH]c3cccc([N+](=O)[O-])c23)ccc1O [CU462, (1E,6E)-1-(4-hydroxy-3-methoxyphenyl)-7-(4-nitro-1H-indol-3-yl)hepta-1,6-diene-3,5-dione] | 232 to 237
O=C(/C=C/c1cc2ccccc2[nH]1)CC(=O)/C=C/c1cc2ccccc2[nH]1 [CU393, (1E,6E)-1,7-bis(1H-indol-2-yl)hepta-1,6-diene-3,5-dione] | 264 to 268
O=C(/C=C/c1ccc(O)cc1)CC(=O)/C=C/c1ccc2nccnc2c1 [CU348, (1E,6E)-1-(4-hydroxyphenyl)-7-(quinoxalin-6-yl)hepta-1,6-diene-3,5-dione] | 251 to 255
COc1cc(/C=C/C(=O)CC(=O)/C=C/c2cc(Cl)cc(Cl)c2O)ccc1O [CU021, (1E,6E)-1-(3,5-dichloro-2-hydroxyphenyl)-7-(4-hydroxy-3-methoxyphenyl)hepta-1,6-diene-3,5-dione] | 185 to 188
COc1cc(/C=C/C(=O)CC(=O)/C=C/c2cc(O)cc(O)c2)ccc1O [CU093, (1E,6E)-1-(3,5-dihydroxyphenyl)-7-(4-hydroxy-3-methoxyphenyl)hepta-1,6-diene-3,5-dione] | 85 to 90
O=C(/C=C/c1ccc(O)cc1)CC(=O)/C=C/c1ccc(O)c([N+](=O)[O-])c1 [CU039, (1E,6E)-1-(4-hydroxy-3-nitrophenyl)-7-(4-hydroxyphenyl)hepta-1,6-diene-3,5-dione] | 240 to 245
COc1ccc(/C=C/C(=O)CC(=O)/C=C/c2ccc(OC)c(O)c2)c(OC)c1 [CU074, (1E,6E)-1-(2,4-dimethoxyphenyl)-7-(3-hydroxy-4-methoxyphenyl)hepta-1,6-diene-3,5-dione] | 64 to 70
Cn1c(/C=C/C(=O)CC(=O)/C=C/c2ccc(O)cc2)cc2ccccc21 [CU126, (1E,6E)-1-(4-hydroxyphenyl)-7-(1-methyl-1H-indol-2-yl)hepta-1,6-diene-3,5-dione] | 208 to 213
COc1ccc2cc(/C=C/C(=O)CC(=O)/C=C/c3ccc(OC)c(O)c3)ccc2c1 [CU171, (1E,6E)-1-(3-hydroxy-4-methoxyphenyl)-7-(6-methoxynaphthalen-2-yl)hepta-1,6-diene-3,5-dione] | 175 to 181
Cc1ccc(Oc2ccc(/C=C/C(=O)CC(=O)/C=C/c3ccc(Oc4ccc(C)cc4)nc3)cn2)cc1 [CU378, (1E,6E)-1,7-bis[6-(4-methylphenoxy)pyridin-3-yl]hepta-1,6-diene-3,5-dione] | 185 to 190
O=C(/C=C/c1ccc(O)cc1)CC(=O)/C=C/c1cc(Cl)ccc1[N+](=O)[O-] [CU465, (1E,6E)-1-(5-chloro-2-nitrophenyl)-7-(4-hydroxyphenyl)hepta-1,6-diene-3,5-dione] | 241 to 250
COc1ccc(/C=C/C(=O)CC(=O)/C=C/c2ccc3ccccc3c2)cc1O [CU165, (1E,6E)-1-(3-hydroxy-4-methoxyphenyl)-7-(naphthalen-2-yl)hepta-1,6-diene-3,5-dione] | 193 to 194
COc1ccc(/C=C/C(=O)CC(=O)/C=C/c2cn(C)c3ccccc23)cc1O [CU125, (1E,6E)-1-(3-hydroxy-4-methoxyphenyl)-7-(1-methyl-1H-indol-3-yl)hepta-1,6-diene-3,5-dione] | 162 to 166
COc1ccc(/C=C/C(=O)CC(=O)/C=C/c2ccc3c(c2)OCCO3)cc1O [CU210, (1E,6E)-1-(2,3-dihydrobenzo[1,4]dioxin-6-yl)-7-(3-hydroxy-4-methoxyphenyl)hepta-1,6-diene-3,5-dione] | 163 to 165
O=C(/C=C/c1ccc(O)cc1)CC(=O)/C=C/c1cc(Br)ccc1F [CU466, (1E,6E)-1-(5-bromo-2-fluorophenyl)-7-(4-hydroxyphenyl)hepta-1,6-diene-3,5-dione] | 177 to 203
O=C(/C=C/c1ccc(O)cc1)CC(=O)/C=C/c1cc(Cl)cc(Cl)c1O [CU281, (1E,6E)-1-(3,5-dichloro-2-hydroxyphenyl)-7-(4-hydroxyphenyl)hepta-1,6-diene-3,5-dione] | 199 to 201
COc1ccc(/C=C/C(=O)CC(=O)/C=C/c2cccnc2)cc1O [CU217, (1E,6E)-1-(3-hydroxy-4-methoxyphenyl)-7-(pyridin-3-yl)hepta-1,6-diene-3,5-dione] | 174 to 175
COc1ccc(/C=C/C(=O)CC(=O)/C=C/c2ccc(F)c(OC)c2)cc1O [CU139, (1E,6E)-1-(4-fluoro-3-methoxyphenyl)-7-(3-hydroxy-4-methoxyphenyl)hepta-1,6-diene-3,5-dione] | 145 to 147
COc1cccc(O)c1/C=C/C(=O)CC(=O)/C=C/c1ccc(O)cc1 [CU275, (1E,6E)-1-(2-hydroxy-6-methoxyphenyl)-7-(4-hydroxyphenyl)hepta-1,6-diene-3,5-dione] | 94 to 99
